# Results: patent US10295530B2, “Functional assay for cancer recurrence and malignant potential” (THE BRIGHAM AND WOMEN'S HOSPITAL, INC., priority 2012, dated 2019)
# Columns and labels:
# [1] = test system: GFP+ responder cells; assay: Co-culture of GFP+ responder cells with BMCs from aspirin or vehicle treated mice, CD24 by flow cytometry; type: cell-based, human; details: BMCs from aspirin treated LBC-bearing mice; same with vehicle
# Description: FIG. 35D. Flow cytometric analysis of CD24 expression on GFP+ responder cells co-cultured with indicated BMCs.
# BMCs were harvested and tested for functional activity as previously described (McAllister et al., 2008). In vitro instigation assays were conducted by co-culturing 1×10^4 GFP-positive responder tumor cells with 1×10^6 BMCs harvested from mice bearing […], TNBC or LBC Instigators. Co-cultured cells were maintained for 4 days in BMDC medium (DMEM, 5% FBS, 5% horse serum, 10^−6 M hydrocortisone), adding fresh medium on day 2.
# In order to understand whether BMCs from LBC tumor bearing mice directly mediated tumor cell surface enrichment of CD24, adherent GFP-positive (GFP+) responding tumor cells were cultured with BMCs prepared from various cohorts of mice and analyzed tumor cell expression of CD24 after 4 days by flow cytometry.
# [2] = test system: responding tumors (HMLER-HR) opposite instigating LBC; assay: Aspirin treatment in LBC-mediated systemic instigation: responding tumors; type: in vivo, mice; details: aspirin 100 mg/kg i.p. once per week
# Description: (§1) FIG. 35A. Experimental scheme to test effects of aspirin on LBC-mediated systemic instigation. All mice were injected with responders and LBC instigating tumors and treated with either 100 mg/kg aspirin or vehicle control; n=10 (5 mice per cohort for 2 independent experiments).
# All experiments were performed in accordance with regulations of the Children's Hospital Boston Institutional Animal Care and Use Committee (protocol 09-12-1566). Unless otherwise indicated, tumor cells were suspended in 20% […] (BD Biosciences) and injected subcutaneously into nonirradiated mice. Tumors were measured on the flanks of live mice using calipers; volume was calculated as 0.5*length*(width^2).
# (§2) 450 mg Aspirin (Sigma, A2093-100G) was dissolved in 11 ml DMSO to make a 41 mg/ml concentrated stock solution. 30 min before injection, 1.6 ml of stock solution was diluted in 11.6 ml of PBS to make a 5 mg/ml injection solution.
# (§3) Vehicle control was made with 1.6 ml DMSO diluted in 11.6 ml PBS. Mice were injected i.p. with aspirin at 100 mg/kg, once per week. A similar volume:weight ratio of vehicle was administered to control animals.
# In order to explore therapeutic potential and identify whether platelets were necessary for delivering the pro-tumorigenic instigating stimulus in the LBC macroenvironment, we treated mice with aspirin, which inhibits platelet activity (28). Mice were injected with LBC instigators that were permitted to grow for 4 weeks prior to initiation of weekly treatments of either aspirin or vehicle control; responders were then injected into these mice two days following the first aspirin treatment (FIG. 35A). While responding tumors formed in 90% of the mice treated with vehicle control, only 20% of the mice treated with aspirin developed responding tumors (FIG. 35B).
# [3] = test system: instigating LBC tumor / host platelets and bone marrow; assay: Aspirin treatment in LBC-mediated systemic instigation: instigating LBC tumor, platelet counts, bone marrow VEGFR2+ cells; type: in vivo, mice; details: aspirin 100 mg/kg i.p. once per week vs vehicle
# Description: as §1
# FIG. 35C. Numbers of VEGFR2+ cells in the bone marrow of experimental mice relative to those of cancer-free mice.
# as §2, §3
# In order to explore therapeutic potential and identify whether platelets were necessary for delivering the pro-tumorigenic instigating stimulus in the LBC macroenvironment, we treated mice with aspirin, which inhibits platelet activity (28). Mice were injected with LBC instigators that were permitted to grow for 4 weeks prior to initiation of weekly treatments of either aspirin or vehicle control; responders were then injected into these mice two days following the first aspirin treatment (FIG. 35A). […]
# [4] = patients treated with erlotinib (Numico et al., 2011); cited from earlier work
# [5] = test system: HMLER-HR responder cells; assay: HMLER-HR responder cells in depleted medium (D.M.) plus EGF and/or insulin, 4 days: flow cytometry and qPCR; type: cell-based, human; details: for CD44 expression / CD44/CD24 expression patterns (flow cytometry) / Oct4 expression (qPCR) / Zeb1 expression (qPCR) / c-Myc expression (qPCR): added to cells kept in D.M. for 4 days, relative to C.M.
# Description: FIG. 23D. Flow cytometric density plots representing CD44/CD24 profiles of responding tumor cells after 4 days in depleted medium, D.M. (medium devoid of EGF and insulin), or D.M.+indicated supplements. Graph represents average responding tumor cell CD441CD24 profiles under indicated conditions relative to that of C.M (samples run in triplicate).
# FIG. 23E. Expression levels of indicated malignancy profile genes in responder tumor cells after 4 days in indicated culture conditions relative to those maintained in C.M. Data represent average of three independent experiments, where each sample was run in triplicate.
# FIG. 26E. Expression levels of c-myc in HMLER-HR responding tumor cells after 4 days in response to indicated doses of EGF. Data are represented relative to cells that had been maintained in depleted medium (D.M.; medium devoid of EGF and insulin). Data are expressed as mean±SEM; samples tested in triplicate.
# HMLER-HR cells were maintained in DMEM-F12 (1:1) medium, supplemented with 5% calf serum, 10 ng/ml human recombinant EGF (Sigma E9644), 10 μg/ml insulin (Sigma 19278), 1 μg/ml hydrocortisone (Sigma 110888) and 1% penicillin-streptomycin. BPLER cells were maintained in WIT Medium (STEMGENT), and MCF7-Ras cells in DMEM media (Thermo Scientific) supplemented with 10% heat inactivated FBS (GIBCO), and 1% penicillin-streptomycin. BT549 cells were maintained in RPMI medium supplemented with 10% FBS.
# RNA was extracted from cells or snap-frozen tissues using Trizol reagent following manufacturer's instructions (INVITROGEN). RNA was retrotranscribed with ProtoScript AMV First Strand cDNA Synthesis Kit (New England BioLabs). PCR amplification was performed on a ABI Prism 7900 sequence detector using SYBR-Green (Applied Biosystems). Analysis was done using delta-delta Ct method, normalizing first to GAPDH.
# Whether EGFR and IGF1R signaling were necessary and/or sufficient for modulating responding tumor malignancy remained to be investigated. To do so, the effects of either depleting EGF and/or insulin from HMLER-HR responder cells that had been cultured in complete medium (C.M.) or adding EGF and/or insulin to cells that had been cultured in depleted medium (D.M., medium depleted of both EGF and insulin) were examined. For these studies, cells were treated under various conditions for 4 days, then assessed differentiation status by flow cytometry, expression of malignancy factors (e.g. Oct-4, Zeb1, c-myc) by qPCR, and tumor-forming capacity by soft agar colony formation.
Compound,CD44 expression / CD44/CD24 expression patterns (flow cytometry) [5],Oct4 expression (qPCR) [5],Zeb1 expression (qPCR) [5],c-Myc expression (qPCR) [5],further results
"CC(=O)Oc1ccccc1C(=O)O [aspirin, Aspirin]",–,–,–,–,"increase in tumor cell CD24 expression above control BMCs from tumor-free mice [1]: ~90%; incorporation of VEGFR2-positive cells into responding tumor sites ([2]; LBC instigating environment): completely inhibited; p-STAT3 in responding tumor site tissues ([2]; LBC instigating environment): negative; mice that developed responding tumors (incidence) ([2]; LBC instigators, vehicle control 90%): 20%; instigating LBC tumor growth [3]: did not significantly affect"
C#Cc1cccc(Nc2ncnc3cc(OCCOC)c(OCCOC)cc23)c1 [erlotinib],–,–,–,–,adverse effect reported for patients [4]: skin rash
EGF: human recombinant EGF (Sigma E9644),sufficient to restore,unaffected,restored,restored,"c-myc upregulation in response to doses of EGF ([5]; HMLER-HR, 4 days, relative to D.M.): dose-dependent"
"insulin: insulin (Sigma 19278), medium supplement",not sufficient to restore,restored,remained significantly lower than the controls,remained significantly lower than the controls,–
